Assay results: the supplement of paper PMC10307832

Columns and labels:
Assay in all cases: relative viability (nuclei count vs DMSO), 5 days (fraction); higher = more cells survive
[1] = compound: CCn1c(-c2nonc2N)nc2cnc(Oc3cccc(NC(=O)c4ccc(OCCN5CCOCC5)cc4)c3)cc21
Outline: (§1)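 In 1536-well plates, lung cancer cell lines rested overnight at 37 °C before five library-drug doses (not always all listed), √10 apart, were pinned onto vehicle-anchored plates. Nuclei were counted with MetaXpress from 4× Hoechst images taken after 5 days without medium change. Viability compares treated-well with vehicle-well nuclei as a median over plates, and plates needed control CV below 25% plus at least one doubling to pass.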

[2] = compound: CCC1=CN=CN=C1N2CCN(CC2)CC3=NC4=C(N3)C=C(C=C4)C(F)(F)F
Outline: as §1

Mirin = compound: N=C1NC(=O)/C(=C/c2ccc(O)cc2)S1 [Mirin]
Outline: as §1

[3] = compound: CCC1=CN=CN=C1N2CCN(CC2)CC3=NC4=C(N3)C=C(C=C4)C(F)(F)F + COc1cc2c(Oc3ccc(NC(=O)C4(C(=O)Nc5ccc(F)cc5)CC4)cc3F)ccnc2cc1OCCCN1CCOCC1 [Foretinib] (partner 0.25 µM)
Outline: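 One day after seeding in 1536-well plates, lung cancer cell lines were dosed by pin tool. Dosing was either single-drug or a fixed anchor-drug dose plus five library-drug doses (not always all listed) in √10 steps. After 5 days, nuclei were stained in one fix-and-stain step and counted on 4× images, and relative viability is the nuclei count of treated wells over that of vehicle wells, given as the median of duplicate plates.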

| Cell Line | relative viability ([1]; 0.04 µM) | relative viability ([1]; 0.1265 µM) | relative viability ([1]; 0.4 µM) | relative viability ([1]; 1.265 µM) | relative viability ([1]; 4 µM) | relative viability ([2]; 0.04 µM) | relative viability ([2]; 0.1265 µM) | relative viability ([2]; 0.4 µM) | relative viability ([2]; 1.265 µM) | relative viability ([2]; 4 µM) | relative viability (Mirin; 0.25 µM) | relative viability (Mirin; 0.7906 µM) | relative viability (Mirin; 2.5 µM) | relative viability (Mirin; 7.906 µM) | relative viability (Mirin; 25 µM) | relative viability ([3]; first compound 0.04 µM) | relative viability ([3]; first compound 0.1265 µM) | relative viability ([3]; first compound 0.4 µM) | relative viability ([3]; first compound 1.265 µM) | relative viability ([3]; first compound 4 µM) |
| --- | --- | --- | --- | --- | --- | --- | --- | --- | --- | --- | --- | --- | --- | --- | --- | --- | --- | --- | --- | --- |
| HCC-78 | 1.2 | 1.08 | 0.75 | 0.955 | 1.16 | 0.875 | 0.894 | 0.888 | 0.746 | 0.756 | 0.887 | 0.838 | 1.11 | 0.894 | 1.09 | 0.585 | 0.631 | 0.491 | 0.51 | 0.539 |
| NCI-H3122 | 1.01 | 0.978 | 0.924 | 0.755 | 0.695 | 1.05 | 1.01 | 0.964 | 1.03 | 1.1 | 1.03 | 0.953 | 1.02 | 1.08 | 1.1 | 0.924 | 0.968 | 0.94 | 0.978 | 0.977 |
| HOP-62 | 1.13 | 1.02 | 0.899 | 0.549 | 0.537 | 1.03 | 0.946 | 0.95 | 0.936 | 1.06 | 0.979 | 1.07 | 0.983 | 0.856 | 1.1 | 1.14 | 1.12 | 1.07 | 1.25 | 0.942 |
| NCI-H661 | 0.998 | 0.969 | 0.957 | 0.82 | 0.611 | 0.996 | 0.973 | 0.955 | 0.967 | 0.971 | 0.988 | 1.09 | 1.03 | 0.974 | 1.01 | 0.973 | 1.03 | 1.04 | 0.943 | 0.834 |
| NCI-H358 | 0.934 | 0.919 | 0.577 | 0.829 | 0.619 | 1.06 | 0.866 | 0.858 | 0.806 | 0.915 | 0.888 | 0.901 | 0.998 | 0.9 | 0.714 | 0.746 | 0.626 | 0.686 | 0.509 | 0.651 |
| BEN | 0.92 | 0.816 | 0.514 | 0.362 | 0.452 | 0.836 | 0.929 | 0.928 | 0.594 | 0.675 | 0.857 | 1.01 | 1.2 | 0.812 | 0.549 | 0.368 | 0.522 | 0.527 | 0.343 | 0.374 |
| ChaGo-K-1 | 1.14 | 1.02 | 0.801 | 0.833 | 0.879 | 1.01 | 0.961 | 0.932 | 0.961 | 0.97 | 0.986 | 0.916 | 0.93 | 0.887 | 0.833 | 1.02 | 0.992 | 0.794 | 0.814 | 0.891 |
| SK-MES-1 | 1.1 | 0.915 | 0.82 | 0.709 | 0.746 | 1.04 | 0.975 | 0.983 | 1 | 0.985 | 1.02 | 1.1 | 1.05 | 1.12 | 1.28 | 0.917 | 0.925 | 0.909 | 0.829 | 0.882 |
| NCI-H1755 | 1.02 | 0.913 | 0.71 | 0.627 | 0.577 | 1.05 | 0.937 | 0.978 | 0.872 | 1 | 1.03 | 1.01 | 1.01 | 1.02 | 1.13 | 0.895 | 0.86 | 0.844 | 0.743 | 0.88 |
| NCI-H2023 | 1.13 | 0.964 | 0.743 | 0.508 | 0.419 | 1.03 | 0.914 | 0.917 | 0.858 | 1.03 | 1.01 | 0.937 | 0.958 | 0.975 | 0.86 | 0.698 | 0.911 | 0.849 | 0.628 | 0.895 |
| LC-2-ad | 1.06 | 0.906 | 0.654 | 0.525 | 0.524 | 1 | 0.947 | 0.973 | 0.871 | 0.92 | 1.02 | 0.848 | 0.964 | 0.824 | 1.04 | 0.927 | 0.88 | 0.922 | 0.803 | 0.857 |
| NCI-H1666 | 1.13 | 1.15 | 1.04 | 0.607 | 0.628 | 0.99 | 0.929 | 0.952 | 0.962 | 0.944 | 1.05 | 1.04 | 0.987 | 0.889 | 0.892 | 0.88 | 0.923 | 0.97 | 0.882 | 0.889 |
| EBC-1 | 1.24 | 1.01 | 0.913 | 0.904 | 0.797 | 1.08 | 1.01 | 0.986 | 0.946 | 0.996 | 1.09 | 1.19 | 1.05 | 0.987 | 0.665 | 0.107 | 0.0909 | 0.0948 | 0.0919 | 0.112 |
| 201T | 1.06 | 0.961 | 0.811 | 0.778 | 0.834 | 0.98 | 0.956 | 0.97 | 0.869 | 1.05 | 1.03 | 1.03 | 0.974 | 1.05 | 1.02 | 1.21 | 1.07 | 1.09 | 1.02 | 1.07 |
| NCI-H2009 | 0.978 | 0.754 | 0.676 | 0.374 | 0.418 | 1.08 | 0.991 | 0.989 | 0.963 | 0.933 | 1.01 | 1.08 | 1.04 | 0.843 | 1.01 | 1.23 | 1.25 | 1.16 | 1.24 | 1.21 |
| NCI-H1395 | 1.13 | 0.837 | 0.769 | 0.469 | 0.563 | 0.837 | 0.86 | 0.943 | 0.769 | 0.892 | 0.948 |  | 0.964 | 0.925 | 0.841 | 0.847 | 0.881 | 1.01 | 0.986 | 0.94 |
